System: EoL-1 (human eosinophilic leukaemia cell line) cells
Assay: TNF-α-induced cytokine release, non-differentiated EoL-1 cells (NO PMA) (Luminex)
Type: cell-based
Parameters: key to Fractalkine (NO PMA), p of decrement / IL-1α (NO PMA), p of decrement / IL-1β (NO PMA), p of decrement / IL-1ra (NO PMA), p of decrement / IL-5 (NO PMA), p of decrement / IL-7 (NO PMA), p of decrement / IL-8 (NO PMA), p of decrement / IP-10 (NO PMA), p of decrement / MCP-1 (NO PMA), p of decrement / MIP-1β (NO PMA), p of decrement / VEGF (NO PMA), p of decrement: ns = non significant
Description: EoL-1 (human eosinophilic leukaemia cell line) cells (Saito et al., 1985; Mayumi, 1992) were maintained in RPMI-1640 medium with L-glutamine supplemented with 10% (v/v) FBS at 37° C. in a humidified atmosphere with 5% CO2. Where indicated, 24 h before the experiment 25 ng/mL PMA ((phorbol 12-myristate 13-acetate, purchased from Sigma Aldrich) was added to the medium to induce eosinophil granulation and differentiation (Ohtsu et al., 1993; Zimmermann et al., 2000).
Half-million cells were aliquoted per point in a 24 well plate; each experiment was performed in triplicate and carried out in parallel with eosinophils differentiated and non differentiated with PMA (25 ng/mL, 24 h). Cells were suspended in low serum medium (RPMI-1640, 0.1% (v/v) FBS). TNF-α was used to induce cytokine secretion as previously described by Steube et al. (2000), and the net release was obtained by comparison to the basal (non-TNF-α treated). In the first experiment we evaluated the concentration and time relation between TNF-α stimulation and cytokine release. Therefore, 5, 10, and 25 ng/mL of TNF-α was administered to the cells at 0, ½, 1, 2, 3, 6, 12 and 24 h (data not shown). An aliquot of 150 μL of supernate was collected for cytokines' analysis. […] Differentiated and non-differentiated EoL-1 cells were exposed from 0.1 to 2.3 mM levocabastine ([…]Levocabastine 0.05% solution eye drops containing cyclodextrins, without benzalkonium chloride), and aliquots of the supernates were collected after 12 and 24 h. The content of cytokines at time zero was estimated by treating the cells with 400 nM calcimycin (A-23187), which is a cytolytic agent that frees all the mediators from the cytoplasmic compartment. In addition, for each experiment we tested the effect of the vehicle, which was added to the wells in a concentration equal to the maximum amount used for drug dilution.
Samples (supernates 12 and 24 h) in triplicate were analyzed using Luminex 200™ (Luminex, Austin, Tex.) and Beadview software v1.0 (Upstate Cell Signaling Solutions, Temecula, Calif.).
All data are presented as mean±SEM for the indicated number of experiments. Statistical significance was determined by Newman-Keuls test after ANOVA using GraphPad Prism (version 3.0; GraphPad Software Inc., San Diego, Calif., USA). P-values<0.05 were considered to be significant.

[1] = 24 h, Levocabastine 2 mM vs TNF-α
[2] = 24 h, TNF-α 5 ng + Levocabastine 2 mM vs TNF-α
[3] = 24 h, TNF-α 10 ng + Levocabastine 2 mM vs TNF-α
[4] = 24 h, TNF-α 20 ng + Levocabastine 2 mM vs TNF-α
[5] = 24 h, TNF-α 5, 10, 20 ng + Levocabastine 2 mM vs TNF-α
[6] = 24 h, VCAM-1 + Levocabastine 2 mM vs VCAM-1
[7] = non-differentiated EoL-1 cells, in the presence of VCAM-1 or fibronectin

C[C@@H]1CN([C@H]2CC[C@](C#N)(c3ccc(F)cc3)CC2)CC[C@]1(C(=O)O)c1ccccc1 [Levocabastine, levocabastine]
IL-8 (NO PMA), p of decrement [1]: ns
IL-10 (NO PMA), p of decrement [1]: ns
IL-12p40 (NO PMA), p of decrement [1]: P < 0.01
IP-10 (NO PMA), p of decrement [1]: ns
MCP-1 (NO PMA), p of decrement [1]: Increase
MIP-1α (NO PMA), p of decrement [1]: Increase
MIP-1β (NO PMA), p of decrement [1]: ns
RANTES (NO PMA), p of decrement [1]: Increase
TGF-α (NO PMA), p of decrement [1]: ns
VEGF (NO PMA), p of decrement [1]: P < 0.001
GM-CSF (NO PMA), p of decrement [2]: ns
IL-1ra (NO PMA), p of decrement [2]: P < 0.01
IL-1β (NO PMA), p of decrement [2]: ns
IL-5 (NO PMA), p of decrement [2]: ns
IL-6 (NO PMA), p of decrement [2]: ns
IL-7 (NO PMA), p of decrement [2]: ns
IL-8 (NO PMA), p of decrement [2]: ns
IL-10 (NO PMA), p of decrement [2]: ns
IL-12p40 (NO PMA), p of decrement [2]: P < 0.001
MCP-1 (NO PMA), p of decrement [2]: ns
TGF-α (NO PMA), p of decrement [2]: P < 0.05
VEGF (NO PMA), p of decrement [2]: P < 0.001
GM-CSF (NO PMA), p of decrement [3]: ns
IL-1ra (NO PMA), p of decrement [3]: P < 0.05
IL-1β (NO PMA), p of decrement [3]: ns
IL-5 (NO PMA), p of decrement [3]: ns
IL-6 (NO PMA), p of decrement [3]: ns
IL-7 (NO PMA), p of decrement [3]: ns
IL-8 (NO PMA), p of decrement [3]: ns
IL-10 (NO PMA), p of decrement [3]: ns
IL-12p40 (NO PMA), p of decrement [3]: P < 0.001
MCP-1 (NO PMA), p of decrement [3]: ns
TGF-α (NO PMA), p of decrement [3]: ns
VEGF (NO PMA), p of decrement [3]: P < 0.001
GM-CSF (NO PMA), p of decrement [4]: ns
IL-1ra (NO PMA), p of decrement [4]: P < 0.01
IL-1β (NO PMA), p of decrement [4]: ns
IL-5 (NO PMA), p of decrement [4]: ns
IL-6 (NO PMA), p of decrement [4]: ns
IL-7 (NO PMA), p of decrement [4]: ns
IL-8 (NO PMA), p of decrement [4]: ns
IL-10 (NO PMA), p of decrement [4]: ns
IL-12p40 (NO PMA), p of decrement [4]: P < 0.001
MCP-1 (NO PMA), p of decrement [4]: ns
TGF-α (NO PMA), p of decrement [4]: P < 0.05
VEGF (NO PMA), p of decrement [4]: P < 0.001
Fractalkine (NO PMA), p of decrement [5]: increase of cytokine secretion
G-CSF (NO PMA), p of decrement [5]: increase of cytokine secretion
IL-1α (NO PMA), p of decrement [5]: increase of cytokine secretion
IP-10 (NO PMA), p of decrement [5]: increase of cytokine secretion
MIP-1α (NO PMA), p of decrement [5]: increase of cytokine secretion
MP-1β (NO PMA), p of decrement [5]: increase of cytokine secretion
RANTES (NO PMA), p of decrement [5]: increase of cytokine secretion
Fractalkine (NO PMA), p of decrement (24 h, TNF-α vs Lev 0.1 mM): ns
IL-1ra (NO PMA), p of decrement (24 h, TNF-α vs Lev 0.1 mM): ns
IL-1α (NO PMA), p of decrement (24 h, TNF-α vs Lev 0.1 mM): ns
IL-1β (NO PMA), p of decrement (24 h, TNF-α vs Lev 0.1 mM): ns
IL-5 (NO PMA), p of decrement (24 h, TNF-α vs Lev 0.1 mM): ns
IL-7 (NO PMA), p of decrement (24 h, TNF-α vs Lev 0.1 mM): ns
IL-8 (NO PMA), p of decrement (24 h, TNF-α vs Lev 0.1 mM): ns
IP-10 (NO PMA), p of decrement (24 h, TNF-α vs Lev 0.1 mM): p < 0.05
MCP-1 (NO PMA), p of decrement (24 h, TNF-α vs Lev 0.1 mM): ns
MIP-1β (NO PMA), p of decrement (24 h, TNF-α vs Lev 0.1 mM): ns
VEGF (NO PMA), p of decrement (24 h, TNF-α vs Lev 0.1 mM): ns
Fractalkine (NO PMA), p of decrement (24 h, TNF-α vs Lev 0.5 mM): ns
IL-1ra (NO PMA), p of decrement (24 h, TNF-α vs Lev 0.5 mM): ns
IL-1α (NO PMA), p of decrement (24 h, TNF-α vs Lev 0.5 mM): ns
IL-1β (NO PMA), p of decrement (24 h, TNF-α vs Lev 0.5 mM): ns
IL-5 (NO PMA), p of decrement (24 h, TNF-α vs Lev 0.5 mM): ns
IL-7 (NO PMA), p of decrement (24 h, TNF-α vs Lev 0.5 mM): ns
IL-8 (NO PMA), p of decrement (24 h, TNF-α vs Lev 0.5 mM): ns
IP-10 (NO PMA), p of decrement (24 h, TNF-α vs Lev 0.5 mM): p < 0.05
MCP-1 (NO PMA), p of decrement (24 h, TNF-α vs Lev 0.5 mM): ns
MIP-1β (NO PMA), p of decrement (24 h, TNF-α vs Lev 0.5 mM): ns
VEGF (NO PMA), p of decrement (24 h, TNF-α vs Lev 0.5 mM): ns
Fractalkine (NO PMA), p of decrement (24 h, TNF-α vs Lev 1.0 mM): ns
IL-1ra (NO PMA), p of decrement (24 h, TNF-α vs Lev 1.0 mM): ns
IL-1α (NO PMA), p of decrement (24 h, TNF-α vs Lev 1.0 mM): ns
IL-1β (NO PMA), p of decrement (24 h, TNF-α vs Lev 1.0 mM): ns
IL-5 (NO PMA), p of decrement (24 h, TNF-α vs Lev 1.0 mM): ns
IL-7 (NO PMA), p of decrement (24 h, TNF-α vs Lev 1.0 mM): ns
IL-8 (NO PMA), p of decrement (24 h, TNF-α vs Lev 1.0 mM): ns
IP-10 (NO PMA), p of decrement (24 h, TNF-α vs Lev 1.0 mM): ns
MCP-1 (NO PMA), p of decrement (24 h, TNF-α vs Lev 1.0 mM): ns
MIP-1β (NO PMA), p of decrement (24 h, TNF-α vs Lev 1.0 mM): ns
VEGF (NO PMA), p of decrement (24 h, TNF-α vs Lev 1.0 mM): ns
Fractalkine (NO PMA), p of decrement (24 h, TNF-α vs Lev 2.3 mM): ns
IL-1ra (NO PMA), p of decrement (24 h, TNF-α vs Lev 2.3 mM): ns
IL-1α (NO PMA), p of decrement (24 h, TNF-α vs Lev 2.3 mM): ns
IL-1β (NO PMA), p of decrement (24 h, TNF-α vs Lev 2.3 mM): ns
IL-5 (NO PMA), p of decrement (24 h, TNF-α vs Lev 2.3 mM): ns
IL-7 (NO PMA), p of decrement (24 h, TNF-α vs Lev 2.3 mM): ns
IL-8 (NO PMA), p of decrement (24 h, TNF-α vs Lev 2.3 mM): ns
IP-10 (NO PMA), p of decrement (24 h, TNF-α vs Lev 2.3 mM): ns
MCP-1 (NO PMA), p of decrement (24 h, TNF-α vs Lev 2.3 mM): ns
MIP-1β (NO PMA), p of decrement (24 h, TNF-α vs Lev 2.3 mM): ns
VEGF (NO PMA), p of decrement (24 h, TNF-α vs Lev 2.3 mM): p < 0.01
MIP-1α (NO PMA), p of increase (24 h, TNF-α vs Lev 0.1-2.3 mM): concentration dependent way p < 0.001
RANTES (NO PMA), p of increase (24 h, TNF-α vs Lev 0.1-2.3 mM): concentration dependent way p < 0.001
Fractalkine (NO PMA), p of decrement [6]: ns
G-CSF (NO PMA), p of decrement [6]: ns
GM-CSF (NO PMA), p of decrement [6]: ns
IL-1ra (NO PMA), p of decrement [6]: P < 0.01
IL-1α (NO PMA), p of decrement [6]: ns
IL-1β (NO PMA), p of decrement [6]: ns
IL-5 (NO PMA), p of decrement [6]: ns
IL-6 (NO PMA), p of decrement [6]: P < 0.001
IL-7 (NO PMA), p of decrement [6]: ns
IL-8 (NO PMA), p of decrement [6]: P < 0.001
IL-10 (NO PMA), p of decrement [6]: ns
IL-12p40 (NO PMA), p of decrement [6]: ns
IP-10 (NO PMA), p of decrement [6]: ns
MCP-1 (NO PMA), p of decrement [6]: ns
MIP-1α (NO PMA), p of decrement [6]: Increase
MIP-1β (NO PMA), p of decrement [6]: ns
RANTES (NO PMA), p of decrement [6]: Increase
TGF-α (NO PMA), p of decrement [6]: ns
VEGF (NO PMA), p of decrement [6]: P < 0.001
release of VEGF (FIG. 4 Panel B) (Naïve EoL-1 cells challenged with TNF-α, levocabastine with cyclodextrin pre-treatment): reduced release
IL-6 release (FIG. 13) [7]: inhibited
release, cytokine not named (FIG. 12) [7]: inhibited

From patent publication US20130289070A1, “Use of Levocabastine for Modulating Generation of Pro-Inflammatory Cytokines” (Bausch & Lomb Incorporated, priority 2007, published 2013)
